What was measured:
[1] = molecular target: T1, M1 muscarinic acetylcholine receptor (Rattus norvegicus, UniProt P08482); experiment: In vitro two-photon FRET response of M1-TN-XXL neurofluocytes to bath-applied neurotransmitters; assay type: cell-based; settings: ACh applied at 10 nM to 10 μM via bath perfusion
T1 construct: expressed in transfected cells
T1 sequence (P08482 1-460): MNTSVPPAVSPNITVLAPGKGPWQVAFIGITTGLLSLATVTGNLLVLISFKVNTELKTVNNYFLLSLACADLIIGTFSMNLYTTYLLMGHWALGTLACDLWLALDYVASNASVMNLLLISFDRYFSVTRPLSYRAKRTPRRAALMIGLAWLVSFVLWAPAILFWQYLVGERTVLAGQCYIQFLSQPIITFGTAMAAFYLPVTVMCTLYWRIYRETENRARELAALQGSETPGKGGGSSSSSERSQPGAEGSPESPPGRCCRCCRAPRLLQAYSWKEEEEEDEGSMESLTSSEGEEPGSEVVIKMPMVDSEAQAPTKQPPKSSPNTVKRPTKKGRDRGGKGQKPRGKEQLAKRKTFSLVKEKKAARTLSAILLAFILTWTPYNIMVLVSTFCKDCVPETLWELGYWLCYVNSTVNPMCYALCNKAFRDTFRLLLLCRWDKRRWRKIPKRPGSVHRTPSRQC
Description: The state of each cell is imaged with in vivo two-photon laser scanning microscopy (TPLSM). In another implementation, HEK293 cells were transfected with the Ca^2+-coupled M1 muscarinic receptor and the genetically encoded FRET-based Ca^2+ biosensor TN-XXL. In the presence of acetylcholine (ACh), a M1-mediated Ca^2+ increase is transduced by TN-XXL into a FRET-based optical signal.
ACh-neurofluocytes expressing a muscarinic receptor and fluorescent protein. […] These cells are referred to here as M1-TN-XXL neuro-fluocytes. HEK-293 cells were transduced with lentiviruses modified to carry the M1 muscarinic acetylcholine receptor or the TN-XXL FRET intracellular calcium indicator as transgenes. Clonal cells were selected subsequently based on the highest response to acetylcholine in vitro.
M1-TN-XXL neurofluocytes. ACh-neurofluocytes were tested in vitro for their sensitivity to acetylcholine. […] FIG. 2a provides a diagram of the detection mechanism.

muscarinic receptors = experiment: Response of implanted neurofluocytes to NBM stimulation after intracerebral injection of antagonist
Description: Urethane-anesthetized rats were injected with HEK293 cells loaded with Calcium Green in the cerebral cortex and a bipolar stimulating electrode was implanted in NBM together with ECoG-recording electrodes to detect desynchronization in cerebral cortex upon NBM stimulation.
A similar set of experiments was conducted with stably transfected M1-TN-XXL neurofluocytes.

[2] = molecular target: T2, ionotropic receptor 5-HT3A (Rattus norvegicus, UniProt P35563); experiment: In vitro response of HEK cells transiently cotransfected with 5-HT3A and TN-XXL to bath-applied serotonin; assay type: cell-based; settings: 3-10 μm serotonin applied in the bath
T2 construct: expressed in transfected cells; host or cells: HEK cells, transient co-transfection with TN-XXL
T2 sequence (P35563 24-483): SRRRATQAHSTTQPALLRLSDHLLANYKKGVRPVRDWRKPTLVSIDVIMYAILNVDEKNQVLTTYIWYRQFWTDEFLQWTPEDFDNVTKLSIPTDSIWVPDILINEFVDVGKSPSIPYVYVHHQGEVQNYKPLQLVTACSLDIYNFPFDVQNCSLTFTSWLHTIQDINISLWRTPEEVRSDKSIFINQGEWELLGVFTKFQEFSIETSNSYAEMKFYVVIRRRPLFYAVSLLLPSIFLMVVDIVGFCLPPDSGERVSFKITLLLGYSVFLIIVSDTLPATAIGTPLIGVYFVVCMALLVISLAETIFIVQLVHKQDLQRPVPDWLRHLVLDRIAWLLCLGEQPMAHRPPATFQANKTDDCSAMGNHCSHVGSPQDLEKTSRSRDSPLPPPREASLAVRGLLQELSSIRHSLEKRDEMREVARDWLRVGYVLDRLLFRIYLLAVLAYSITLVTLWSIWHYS

SMILES	FRET response / sensitivity of ACh-neurofluocytes to neurotransmitter [1]	effect on responses of neurofluocytes to NBM stimulation (muscarinic receptors)	response of 5-HT3A/TN-XXL cells [2]
NC[C@H](O)c1ccc(O)c(O)c1 [norepinephrine]	insensitive	–	–
CN1[C@@H]2CC[C@H]1C[C@@H](OC(=O)C(CO)c1ccccc1)C2 (stereo partly shown) [atropine]	–	abolished	–
N[C@@H](CCC(=O)O)C(=O)O [glutamate]	insensitive	–	–
NCCc1ccc(O)c(O)c1 [dopamine]	insensitive	–	–
NCCCC(=O)O [GABA]	insensitive	–	–
NCCc1c[nH]c2ccc(O)cc12 [serotonin]	insensitive	–	responded robustly
